Measured values taken from patent US10174005B2, “Fused pyrimidines as inhibitors of p97 complex” (Cleave Biosciences, Inc., priority 2014, dated 2019).
pIC50: −log10 of the molar value.

Tests used:
A549 cells = test: Cultured cancer cell viability assay (cell titer glo, CTG) in A549 cells; type: cell-based; details: Homo sapiens; A549 cells, 72 hr incubation, cell titer glo; read-out: A549 CTG IC50
Description: Anti-tumor effects are monitored in cultured cancer cells after several days of compound treatment. The cell titer glo assay (Promega) measures the amount of ATP present as a proxy for cellular viability. Cellular counting is done using high-content microscopy followed by image analysis. A hanging drop 3D-culture system (3D Biomatrix) is used followed by cell titer glo to measure growth in a tumor-like environment.
The cellular assay provides information about the anti-neoplastic activity of the compounds of the invention. The compounds are tested against cultured cancer cells to determine whether or not the compounds of the invention are capable of intersecting with cancer cells to minimize or eliminate such cells. The assay involves establishing colonies of such cells and then treating them with the test compound under specified conditions and analysis regima to determine results.
(§1) Cell Plating: • Seed cells ˜16 hrs prior to compound treatment • Plate 25 μL of A549 cells in every well of 384-well plate using multidrop. • Two (2) black plates for IF at 2500 cells/well • Let plate sit at room temp for 10-15 minutes prior to putting in incubator to • allow cells to stick in middle of plate. • One (1) white plate for viability at 500 cells/well.
(§2) Day 2 Treatment of Cultured Cells with Test Compounds • Treat Cells: • Serial dilute compounds with a 10 point 2-fold serial dilution in DMSO to make 250× stock compound solution • Dilute compounds 1:125 in cell culture media to make a 2× solution Add • 25 μl of dilution compounds to cell plates in well duplicates Put cells back in incubator (6 hr incubation for black plates, 72 hr incubation for white plates).
Viability Assay: • Thaw an aliquot of frozen cell titer glo (Promega G7572) at room temperature. • Add 45 mL of NaCl/PBS solution to 5 ml of cell titer glo (10×). • Remove white plates from incubator, leave at room temp for 30 minutes. • Add 25 μl of diluted cell titer glo to each well. • Shake plate for >1 minute. • Incubate plate for >5 minutes to stabilize luminescence. • Luminescence is stable for up to 3 hours. • Read luminescence on plate reader

[1] = tested on: K48-Ub (lysine-48 chain linkage of poly-ubiquitin) in A549 cells; test: A549 K48-Ub accumulation, immunofluorescence high-content imaging; type: cell-based; details: Homo sapiens, 6 hr incubation
Protocol: Image-analysis is used to generate quantitative data from these assays that can be fit to a four-parameter sigmoid curve to derive IC50 values. Substrates of the ubiquitin-proteasome system, such as p53, are monitored after tumor cell lines are incubated with compounds for several hours. Accumulation of these proteins indicates an inhibition of proteasome-mediated degradation. Accumulation of lysine-48 chain linkage of poly-ubiquitin is also monitored by immunofluorescence as an indicator of ubiquitin-proteasome system inhibition. Both LC3 and SQSTM1 are mediators of autophagy. The localization and amounts of these proteins are monitored by immunofluorescence and report on the activity and inhibition of autophagy in response to p97 inhibition.
as §1, §2
Fix/Stain Black Plates: • Incubate cells in black plates with compound at 37 deg C. for 6 hrs. add 15 μL of 16% Paraformaldehyde (PFA) directly into media of each well, incubate at room temp for 5 min, flick plate and wash in 50 μL of PBS block in 50 μL of Blocking Buffer for 30 minutes (can go up to several hours) • Blocking buffer: 1×PBS, 1% BSA, 0.3% Triton-X 100, Hoechst (1:10,000) incubate in 25 μL of primary antibody in blocking buffer at 4 deg C. over night
Secondary Antibodies: • AlexaFluor488 Goat anti-Rabbit 1:2,000 (Life Tech A11008) • AlexaFluor555 Goat anti-Mouse 1:2.000 (Life Tech A21422)
Day 3/4 • Black Plate Staining (cont): • wash black plates 3× in 50 μL PBS (˜5 min each) incubate in 25 μl of secondary antibody (1:2,000) in blocking buffer for 1-2 hrs at room temp (alexafluor488-anti-Rabbit/alexafluor555-anti-Mouse) • wash 4× in 50 μL PBS (˜5 min each) • leave plates in PBS for imaging • clean bottom of plates with 70% EtOH
Imaging: • Image plates in high content microscope with 405 nm, 488 nm and 555 nm filters
Data Analysis: • Nuclear counts and cellular intensities of each markers are measured using Hoechst as a nuclear marker with an automated image analysis protocol using Matlab software (Math Works)

p97 = p97 (Homo sapiens, UniProt P55072); test: P97 ATPase biochemical assay (ADP Glo); details: 20 nM p97, 20 μM ATP, 37° C. for 15 minutes
Protocol: The ATPase assay is performed according the following protocol: Purified enzyme (20 nM p97), substrate (20 μM ATP) and a dose titration of compounds are mixed in buffer (50 mM TRIS pH 7.5, 20 mM MgCl2, 0.02% TX-100, 1 mM DTT, 0.2% (v/v) glycerol) and incubated at 37° C. for 15 minutes. The reaction is terminated and the level of product generated is measured using the ADP Glo Assay Kit (Promega, Madison Wis.). Plotting product generated versus compound concentration and using a four-parameter fit model generates an IC50 value for each compounds.
The p97 assay is an initial screening assay used to determine inhibitory activity of the fused pyrimidine compounds of the invention against the p97 complex. As discussed above, inhibition of activity of the p97 proteosome complex can enable apoptosis and cause elimination of neoplastic cells (cancer cells). The method follows that of Christianson in Nat. Cell Biol., (2011) 14:93.
Assay Buffer is a mixture of 50 mM TRIS pH 7.5, 20 mM MgCl2, 0.02% TX-100, 1 mM DTT and 0.2% (v/v) Glycerol. The well plate is Platetype: Corning 3674, 384w plate. The identification kit is an ADP glo kit (Promega): stop buffer, detection reagent.
Serial dilute compound in DMSO in a 1:3.33-fold 10 point serial dilution.
in each well of 384w plate add the following reagents:
0.5 μL compound serial diluted in DMSO (Final Conc. 10%)
2 μL ATP (Final Conc.=20 uM, diluted in assay buffer)
2.5 μL p97 (Final Conc.=20 nM, diluted in assay buffer)
Incubate at 37 deg C. for 15 min.
Add 5 μL of stop buffer, incubate at RT for 40 min.
Add 10 μL of detection reagent, incubate at RT for 30 min.
Read luminescence on Envision plate reader.
Upon obtaining the data from the luminescence reading, the data may be analyzed as follows:
Normalize luminescence data using no enzyme (full inhibition) and no compound (no inhibition) controls. Plot normalized luminescence data against log-transformed concentration values and fit to a sigmoidal curve to determine IC50 values (done in Collaborative Drug Discovery software).

Sequence of p97 (P55072 whole entry): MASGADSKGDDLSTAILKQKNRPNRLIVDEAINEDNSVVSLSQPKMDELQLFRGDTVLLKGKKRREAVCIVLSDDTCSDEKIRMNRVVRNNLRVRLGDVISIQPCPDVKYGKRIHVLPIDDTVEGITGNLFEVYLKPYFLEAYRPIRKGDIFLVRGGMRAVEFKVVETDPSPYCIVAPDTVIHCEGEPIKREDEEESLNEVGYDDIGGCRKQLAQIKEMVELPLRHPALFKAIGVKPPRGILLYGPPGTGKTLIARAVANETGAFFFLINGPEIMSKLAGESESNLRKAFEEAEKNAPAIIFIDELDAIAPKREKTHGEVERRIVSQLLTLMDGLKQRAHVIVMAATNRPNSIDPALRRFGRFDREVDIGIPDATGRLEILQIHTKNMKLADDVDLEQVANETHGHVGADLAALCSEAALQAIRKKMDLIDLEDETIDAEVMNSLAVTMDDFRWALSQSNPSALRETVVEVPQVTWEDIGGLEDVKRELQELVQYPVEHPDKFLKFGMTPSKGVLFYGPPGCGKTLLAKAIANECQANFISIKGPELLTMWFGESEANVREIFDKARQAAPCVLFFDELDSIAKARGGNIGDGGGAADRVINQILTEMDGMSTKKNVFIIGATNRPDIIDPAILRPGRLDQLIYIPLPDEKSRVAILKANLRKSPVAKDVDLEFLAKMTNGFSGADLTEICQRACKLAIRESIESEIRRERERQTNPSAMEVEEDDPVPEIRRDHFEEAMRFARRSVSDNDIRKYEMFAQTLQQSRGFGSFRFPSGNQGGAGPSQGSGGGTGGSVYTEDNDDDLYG

CC(C)NCC(O)COc1cccc2ccccc12 (centres unmarked) [Propranolol]
Peff A B, Range (Caco-2 cells; pH 7.4 Caco-2, A to B): 18.50-36.80 × E-6 cm/sec
Peff B A, Range (Caco-2 cells; pH 7.4 Caco-2, B to A): 16.30-31.40 × E-6 cm/sec

Cc1cc2c(C(N)=O)cccc2n1-c1nc2c(c(NCc3cccc(F)c3)n1)CCCN2 [FF26, 1-(4-((3-fluorobenzyl)amino)-5,6,7,8-tetrahydropyrido[2,3-d]pyrimidin-2-yl)-2-methyl-1H-indole-4-carboxamide]
pIC50 (A549 cells): > 5.52
pIC50 [1]: > 5.52
pIC50 (p97): > 7.52

NCc1cc2c(C(N)=O)cccc2n1-c1nc(NCc2ccccc2)c2c(n1)OCCC2 [FF32, 2-(aminomethyl)-1-(4-(benzylamino)-6,7-dihydro-5H-pyrano[2,3-d]pyrimidin-2-yl)-1H-indole-4-carboxamide]
pIC50 (A549 cells): > 5.00
pIC50 [1]: > 5.00
pIC50 (p97): > 7.00

Cc1oc2c(C(N)=O)cccc2c1-c1nc2c(c(NCc3ccccc3)n1)CCCC2 [FF35, 3-(4-(benzylamino)-5,6,7,8-tetrahydroquinazolin-2-yl)-2-methylbenzofuran-7-carboxamide]
pIC50 (A549 cells): > 5.52
pIC50 [1]: > 5.52
pIC50 (p97): > 7.52

COc1nc2c(C(N)=O)cccc2n1-c1nc(NCc2ccccc2)c2c(n1)OCCC2 [FF24, 1-(4-(benzylamino)-6,7-dihydro-5H-pyrano[2,3-d]pyrimidin-2-yl)-2-methoxy-1H-benzo[d]imidazole-4-carboxamide]
pIC50 (A549 cells): > 5.52
pIC50 [1]: > 5.52
pIC50 (p97): > 7.52

Cc1cc2c(C(N)=O)cccc2n1-c1nc(NCc2cc(F)cc(F)c2)c2c(n1)OCCC2 [FF30, 1-(4-((3,5-difluorobenzyl)amino)-6,7-dihydro-5H-pyrano[2,3-d]pyrimidin-2-yl)-2-methyl-1H-indole-4-carboxamide]
pIC50 (A549 cells): > 5.52
pIC50 [1]: > 5.52
pIC50 (p97): > 7.52

Cc1cc2c(C(N)=O)cccc2n1-c1nc2c(c(NCc3ccccc3)n1)CCCN2 [FF07, 1-(4-(benzylamino)-5,6,7,8-tetrahydropyrido[2,3-d]pyrimidin-2-yl)-2-methyl-1H-indole-4-carboxamide]
pIC50 (A549 cells): > 6.00
pIC50 [1]: > 6.00
pIC50 (p97): > 7.52

NC(=O)c1cccc2c1cnn2-c1nc2c(c(NCc3ccccc3)n1)CCCC2 [FF03, 1-(4-(benzylamino)-5,6,7,8-tetrahydroquinazolin-2-yl)-1H-indazole-4-carboxamide]
pIC50 (A549 cells): > 6.00
pIC50 [1]: > 6.00
pIC50 (p97): > 7.52

Cc1cc2c(C(N)=O)cccc2n1-c1nc2c(c(NCc3ccccc3)n1)CCCCC2 [FF18, 1-(4-(benzylamino)-6,7,8,9-tetrahydro-5H-cyclohepta[d]pyrimidin-2-yl)-2-methyl-1H-indole-4-carboxamide]
pIC50 (A549 cells): > 6.00
pIC50 [1]: > 5.52
pIC50 (p97): > 7.52

Cc1cc2c(C(N)=O)cccc2n1-c1nc(NCc2ccccc2)c2c(n1)C(C)CNC2 (centres unmarked) [FF19, 1-(4-(benzylamino)-8-methyl-5,6,7,8-tetrahydropyrido[4,3-d]pyrimidin-2-yl)-2-methyl-1H-indole-4-carboxamide]
pIC50 (A549 cells): > 5.52
pIC50 [1]: > 6.00
pIC50 (p97): > 7.00

Cc1cc2c(C(N)=O)cccc2n1-c1nc(NCc2ccccc2)c2c(n1)OCC2 [FF08, 1-(4-(benzylamino)-5,6-dihydrofuro[2,3-d]pyrimidin-2-yl)-2-methyl-1H-indole-4-carboxamide]
pIC50 (A549 cells): > 5.52
pIC50 [1]: > 5.52
pIC50 (p97): > 7.00

NC(=O)c1cccc2c1cnn2-c1nc(NCc2ccccc2)c2c(n1)OCCC2 [FF28, 1-(4-(benzylamino)-6,7-dihydro-5H-pyrano[2,3-d]pyrimidin-2-yl)-1H-indazole-4-carboxamide]
pIC50 (A549 cells): > 5.52
pIC50 [1]: > 5.52
pIC50 (p97): > 7.00

Cc1cc2c(C(N)=O)cccc2n1-c1nc2c(c(NCc3ccccc3)n1)N(C)CCC2 [FF21, 1-(4-(benzylamino)-5-methyl-5,6,7,8-tetrahydropyrido[3,2-d]pyrimidin-2-yl)-2-methyl-1H-indole-4-carboxamide]
pIC50 (A549 cells): > 6.00
pIC50 [1]: > 6.00
pIC50 (p97): > 7.52

Cc1cc2c(C(N)=O)cccc2n1-c1nc(NCc2cccc(F)c2)c2c(n1)OCCC2 [FF09, 1-(4-((3-fluorobenzyl)amino)-6,7-dihydro-5H-pyrano[2,3-d]pyrimidin-2-yl)-2-methyl-1H-indole-4-carboxamide]
pIC50 (A549 cells): > 6.00
pIC50 [1]: > 6.00
pIC50 (p97): > 7.52

Cc1[nH]c2c(C(N)=O)cccc2c1-c1nc2c(c(NCc3ccccc3)n1)CCCC2 [FF05, 3-(4-(benzylamino)-5,6,7,8-tetrahydroquinazolin-2-yl)-2-methyl-1H-indole-7-carboxamide]
pIC50 (A549 cells): > 5.52
pIC50 [1]: > 5.52
pIC50 (p97): > 7.52

Cc1cc2c(C(N)=O)cccc2n1-c1nc2c(c(NCc3cccc(F)c3)n1)NCCC2 [FF25, 1-(4-((3-fluorobenzyl)amino)-5,6,7,8-tetrahydropyrido[3,2-d]pyrimidin-2-yl)-2-methyl-1H-indole-4-carboxamide]
pIC50 (A549 cells): > 5.52
pIC50 [1]: > 5.52
pIC50 (p97): > 7.52
